Tested on: human CTPS1 versus CTPS2
Test: Human CTPS1 versus CTPS2 selectivity assessment by RapidFire/MS analysis
Assay type: biochemical
Conditions: RapidFire/MS IC50 ratio
Experimental: Human CTPS1 versus CTPS2 Selectivity Assessment by RapidFire/MS Analysis.
The enzyme inhibitory activities against each target isoform of interest may be determined for the compounds of the invention using an optimised RapidFire high-throughput mass spectrometry (RF/MS) assay format. RF/MS assays for both human CTPS1 and CTPS2 may be performed in assay buffer consisting of 50 mM HEPES (Merck), 20 mM MgCl2, 5 mM KCl, 1 mM DTT, 0.01% Tween-20, pH to 8.0 accordingly. Human full-length active C-terminal FLAG-His-tag CTPS1 (UniProtKB—P17812, CTPS[1-591]-[…]) may be obtained from Proteros biostructures GmbH. Human full length active C-terminal FLAG-His-Avi tagged CTPS2 (UniProtKB-Q9NRF8, CTPS2 [1-586]-[…]) may be obtained from Harker Bio.
Human CTPS (1 or 2) protein may be prepared in 1× assay buffer to the final working protein concentration required for the reaction. A 2 uL volume per well of 2×CTPS (1 or 2) protein may be mixed with 40 nL of compound using acoustic (ECHO) delivery and incubated for 10 minutes at 25° C. Each isoform enzymatic reaction may be subsequently initiated by addition of 2 uL per well of a 2× substrate mix in assay buffer. For hCTPS1: ATP (0.3 mM), UTP (0.2 mM), GTP (0.07 mM) and L-glutamine (0.1 mM). For hCTPS2: ATP (0.1 mM), UTP (0.04 mM), GTP (0.03 mM) and L-glutamine (0.1 mM). Each mixture may be incubated for an appropriate amount of time per isoform within the determined linear phase of the reaction at 25′C. A 60 uL volume of stop solution (1% formic acid with 0.5 uM ^13C9-^15N3-CTP in H2O) may be added and the plate immediately heat-sealed and centrifuged for 10 minutes at 4,000 rpm. Following centrifugation, plates may be loaded onto the Agilent RapidFire microfluidic solid phase extraction system coupled to an API4000 triple quadrupole mass spectrometer (RF/MS) for analysis.
In all cases, the enzyme converts UTP to CTP. Highly specific and sensitive multiple reaction monitoring (MRM) MS methods may be optimised for the detection of the enzymatic reaction product, CTP, and the stable isotope labelled product standard ^13C9-^15N3-CTP. Readout for data analysis may be calculated as the ratio between the peak area of the product CTP and the internal standard ^13C9-^15N3-CTP. For data reporting, the following equation may be used: […]
For each screening plate, the means of the negative (DMSO) and positive control values were used for the calculation of the respective assay window (S/B) and Z′ values. The median of the respective control values was used for calculation of percent inhibition according to the following equation: […]
Percentage inhibition was then plotted against compound concentration, and the 50% inhibitory concentration (IC50) was determined from the resultant concentration-response curve.
Fold selectivity between CTPS1 and CTPS2 was subsequently calculated according to the following equation: […]

Row | SMILES | Selectivity (fold selectivity between CTPS1 and CTPS2) (Table 26) | Selectivity (fold selectivity between CTPS1 and CTPS2) (Table 27)
1 | CCOc1cncc(-c2ccc(NC(=O)C(F)(CC)c3ccnc(NS(=O)(=O)C4CC4)n3)nc2)n1 (racemic) [Example P112, 2-(2-(Cyclopropanesulfonamido)pyrimidin-4-yl)-N-(5-(6-ethoxypyrazin-2-yl)pyridin-2-yl)-2-fluorobutanamide] | ++ (>30-60 fold (++)) | –
2 | CCOc1cncc(-c2ccc(NC(=O)C(F)(CC)c3ccnc(NS(=O)(=O)C4CC4)n3)nc2)n1 (single isomer, unassigned) [Example P113, 2-(2-(cyclopropanesulfonamido)pyrimidin-4-yl)-N-(5-(6-ethoxypyrazin-2-yl)pyridin-2-yl)-2-fluorobutanamide] | + (2-30 fold (+)) | –
3 | CCOc1cncc(-c2ccc(NC(=O)C(F)(CC)c3ccnc(NS(=O)(=O)C4CC4)n3)nc2)n1 (single isomer, unassigned) [Example P114, 2-(2-(cyclopropanesulfonamido)pyrimidin-4-yl)-N-(5-(6-ethoxypyrazin-2-yl)pyridin-2-yl)-2-fluorobutanamide] | +++ (>60 fold (+++)) | –
4 | CCOc1cncc(-c2ccc(NC(=O)C(F)(CC)c3cncc(NS(=O)(=O)C4CC4)n3)nc2)n1 (single isomer, unassigned) [Example P206] | +++ (>60 fold (+++)) | –
5 | CCOc1cncc(-c2ccc(NC(=O)C(F)(CC)c3cncc(NS(=O)(=O)C4CC4)n3)nc2)n1 (single isomer, unassigned) [Example P207] | + (2-30 fold (+)) | –
6 | CCOc1cncc(-c2ccc(NC(=O)C3(c4ccnc(NS(=O)(=O)C5CC5)n4)CCC(O)CC3)nc2)n1 (single isomer, unassigned) [Example P227, 1-(2-(cyclopropanesulfonamido)pyrimidin-4-yl)-N-(5-(6-ethoxypyrazin-2-yl)pyridin-2-yl)-4-hydroxycyclohexanecarboxamide] | – | +++ (>60 fold (+++))
7 | CCOc1cncc(-c2ccc(NC(=O)C3(c4ccnc(NS(=O)(=O)C5CC5)n4)CCC(O)CC3)nc2)n1 (single isomer, unassigned) [Example P228, 1-(2-(cyclopropanesulfonamido)pyrimidin-4-yl)-N-(5-(6-ethoxypyrazin-2-yl)pyridin-2-yl)-4-hydroxycyclohexanecarboxamide] | – | + (2-30 fold (+))
8 | CCOc1cncc(-c2ccc(NC(=O)C3(c4ccnc(NS(=O)(=O)C5CC5)n4)CCC(N(C)C)CC3)nc2)n1 (single isomer, unassigned) [Example P229, 1-(2-(cyclopropanesulfonamido)pyrimidin-4-yl)-4-(dimethylamino)-N-(5-(6-ethoxypyrazin-2-yl)pyridin-2-yl)cyclohexane-1-carboxamide] | – | +++ (>60 fold (+++))
9 | CCOc1cncc(-c2ccc(NC(=O)C3(c4ccnc(NS(=O)(=O)C5CC5)n4)CCC(N(C)C)CC3)nc2)n1 (single isomer, unassigned) [Example P230, 1-(2-(cyclopropanesulfonamido)pyrimidin-4-yl)-4-(dimethylamino)-N-(5-(6-ethoxypyrazin-2-yl)pyridin-2-yl)cyclohexane-1-carboxamide] | – | +++ (>60 fold (+++))
10 | CCC(C(=O)Nc1ccc(-c2cncc(Cl)c2)cc1)c1ccnc(NS(=O)(=O)C2CC2)n1 (stereo not shown) [Example P1, N-(4-(5-Chloropyridin-3-yl)phenyl)-2-(2-(cyclopropanesulfonamido)pyrimidin-4-yl)butanamide] | + (2-30 fold (+)) | –
11 | CCOc1cncc(-c2ccc(NC(=O)C3(c4ccnc(NS(=O)(=O)C5CC5)n4)CCCC3)cc2)n1 [Example P2, 1-(2-(Cyclopropanesulfonamido)pyrimidin-4-yl)-N-(4-(6-ethoxypyrazin-2-yl)phenyl)cyclopentanecarboxamide] | +++ (>60 fold (+++)) | –
12 | CC(C)Oc1cncc(-c2ccc(NC(=O)Cc3ccnc(NS(=O)(=O)C4CC4)n3)c(F)c2)n1 [Example P12] | ++ (>30-60 fold (++)) | –
13 | O=C(Cc1ccnc(NS(=O)(=O)C2CC2)n1)Nc1ccc(-c2cccnc2)cc1 [Example P16] | ++ (>30-60 fold (++)) | –
14 | CCOc1cncc(-c2ccc(NC(=O)Cc3ccnc(NS(=O)(=O)C4CC4)n3)cc2)n1 [Example P18, 2-(2-(Cyclopropanesulfonamido)pyrimidin-4-yl)-N-(4-(6-ethoxypyrazin-2-yl)phenyl)acetamide] | ++ (>30-60 fold (++)) | –
15 | CC(C)Oc1cncc(-c2ccc(NC(=O)Cc3ccnc(NS(=O)(=O)C4CC4)n3)cc2)n1 [Example P21] | ++ (>30-60 fold (++)) | –
16 | CCOc1cncc(-c2ccc(NC(=O)C(C)(C)c3ccnc(NS(=O)(=O)C4CC4)n3)nc2)n1 [Example P31] | +++ (>60 fold (+++)) | –
17 | CCOc1cncc(-c2ccc(NC(=O)C(C)(C)c3ccnc(NS(=O)(=O)C4CC4)n3)c(C#N)c2)n1 [Example P34] | + (2-30 fold (+)) | –

Row | SMILES | Selectivity (fold selectivity between CTPS1 and CTPS2) (Table 26) | Selectivity (fold selectivity between CTPS1 and CTPS2) (Table 27)
18 | CCOc1cncc(-c2ccc(NC(=O)C(C)(C)c3ccnc(NS(=O)(=O)C4CC4)n3)c(F)c2)n1 [Example P38] | + (2-30 fold (+)) | –
19 | CC(C)Oc1cncc(-c2ccc(NC(=O)C(C)(C)c3ccnc(NS(=O)(=O)C4CC4)n3)c(F)c2)n1 [Example P39] | + (2-30 fold (+)) | –
20 | CC(C)(C(=O)Nc1ccc(-c2cccnc2)cc1)c1ccnc(NS(=O)(=O)C2CC2)n1 [Example P59] | + (2-30 fold (+)) | –
21 | CCOc1cncc(-c2ccc(NC(=O)C(C)(C)c3nc(NS(=O)(=O)C4CC4)ncc3F)cc2)n1 [Example P68] | ++ (>30-60 fold (++)) | –
22 | CCOc1cncc(-c2ccc(NC(=O)C(C)(C)c3nc(NS(=O)(=O)C4CC4)ncc3C)cc2)n1 [Example P70] | + (2-30 fold (+)) | –
23 | CCOc1cncc(-c2ccc(NC(=O)C(C)(C)c3ccnc(NS(=O)(=O)CC)n3)cc2)n1 [Example P74] | ++ (>30-60 fold (++)) | –
24 | CCOc1cncc(-c2ccc(NC(=O)C(C)(C)c3ccnc(NS(C)(=O)=O)n3)nc2)n1 [Example P76] | ++ (>30-60 fold (++)) | –
25 | CCOc1cncc(-c2ccc(NC(=O)C3(c4ccnc(NS(=O)(=O)C5CC5)n4)CC3)cc2)n1 [Example P83] | +++ (>60 fold (+++)) | –
26 | CCC(C(=O)Nc1ccc(-c2cncc(C(F)(F)F)n2)cn1)c1ccnc(NS(=O)(=O)C2CC2)n1 (stereo not shown) [Example P87] | ++ (>30-60 fold (++)) | –
27 | CCOc1cncc(-c2ccc(NC(=O)C(CC)c3ccnc(NS(=O)(=O)C4CC4)n3)nc2)n1 (stereo not shown) [Example P88] | +++ (>60 fold (+++)) | –
28 | CCC(C(=O)Nc1ccc(-c2cncc(OC(C)C)n2)cn1)c1ccnc(NS(=O)(=O)C2CC2)n1 (stereo not shown) [Example P89] | +++ (>60 fold (+++)) | –
29 | CCC(C(=O)Nc1ccc(-c2cncc(OC)n2)cc1F)c1ccnc(NS(=O)(=O)C2CC2)n1 (stereo not shown) [Example P95] | + (2-30 fold (+)) | –
30 | CCOc1cncc(-c2ccc(NC(=O)C(CC)c3ccnc(NS(=O)(=O)C4CC4)n3)c(F)c2)n1 (stereo not shown) [Example P96] | + (2-30 fold (+)) | –
31 | CCC(C(=O)Nc1ccc(-c2cncc(OCC(F)(F)F)n2)cc1F)c1ccnc(NS(=O)(=O)C2CC2)n1 (stereo not shown) [Example P98] | +++ (>60 fold (+++)) | –
32 | CCC(C(=O)Nc1ccc(-c2cncc(C(F)(F)F)n2)cc1)c1ccnc(NS(=O)(=O)C2CC2)n1 (stereo not shown) [Example P103] | + (2-30 fold (+)) | –
33 | CCOc1cncc(-c2ccc(NC(=O)C(CC)c3ccnc(NS(=O)(=O)C4CC4)n3)cc2)n1 (stereo not shown) [Example P105, 2-(2-(Cyclopropanesulfonamido)pyrimidin-4-yl)-N-(4-(6-ethoxypyrazin-2-yl)phenyl)butanamide] | ++ (>30-60 fold (++)) | –
34 | CCC(C(=O)Nc1ccc(-c2cncc(OCC(F)(F)F)n2)cc1)c1ccnc(NS(=O)(=O)C2CC2)n1 (stereo not shown) [Example P108] | +++ (>60 fold (+++)) | –
